Laboratory results from US12404304B1, “Telomerase reverse transcriptase (TERT) expression enhancing compounds and methods for using the same” (Sierra Sciences, LLC, priority 2007, dated 2025).

What was measured:
viable cells in culture = experiment: Cell viability assay (CellTiter-Glo Luminescent Cell Viability Assay, ATP quantitation, percent of vehicle control)
Description: Cell viability is determined using a homogeneous method, such as CellTiter-Glo® Luminescent Cell Viability Assay (Promega Corporation, Madison, WI.) to determine the number of viable cells in culture These assays are based on quantitation of the ATP present, which signals the presence of metabolically active cells. Luminescent values of compound treated cells are compared to that of cells treated with vehicle alone to determine the average cell viability as a percent of control.

[1] = tested on: human TERT expression (hTERT mRNA); experiment: Quantitative real-time RT-PCR of hTERT mRNA expression (Ct, transcripts) in compound-treated cells; format: cell-based; settings: quantitative real-time RT-PCR
Summary of the method: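 Read-out is cycle threshold, the cycle at which probe fluorescence released by Taq 5′-nuclease activity crosses a set level; Ct falls as hTERT mRNA rises. cDNA of treated and untreated cells was compared, with starting transcripts quantified against a known-cDNA standard curve.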

| SMILES | Average Cell Viability after 24 Hours (% DMSO) (viable cells in culture) | Average Number of hTERT Transcripts [1] |
| --- | --- | --- |
| CC1=C(C(=O)OC2CCCCCC2)C(c2ccc([N+](=O)[O-])cc2)C2=C(CC(C)(C)CC2=O)N1 (centres unmarked) [compound 1246] | 83.08 % DMSO | 27.65 |
| CC1=C(C(=O)OC2CCCC2)C(c2ccc(Br)cc2)C2=C(CC(C)(C)CC2=O)N1 (centres unmarked) [compound 1247] | 95.77 % DMSO | 74.16 |
| COC(=O)CSC1=C(C#N)C(c2ccco2)C(C(=O)Nc2ccc(Cl)cc2)=C(C)N1 (centres unmarked) [compound 1248] | 57.47 % DMSO | 4.69 |
| Brc1n[nH]c2ncnc(N3CCCC3)c12 [compound 1249] | 77.92 % DMSO | 27.87 |
| Cc1cc(C2CCCCC2)n(O)c(=O)c1 [compound 1250] | 67.25 % DMSO | 184.64 |
| O=S(=O)(c1cccc(F)c1)N1CCC(Oc2ccc(-n3cnnn3)cc2)CC1 [compound 1251] | 65.10 % DMSO | 23.22 |
| Oc1ccc2nc(N3CCOCC3)sc2c1 [compound 1252] | 96.63 % DMSO | 4.21 |
| CCC(O)c1nc2ccccc2n1CCOc1cccc(OC)c1 (centres unmarked) [compound 1253] | 91.13 % DMSO | 3.09 |
| COc1ccc(OC)c(NC(=O)CSc2ccc(-c3ccccn3)nn2)c1 [compound 1254] | 66.42 % DMSO | 47.45 |
| O=C(CSc1ccc(-c2ccccn2)nn1)Nc1ccc2c(c1)OCO2 [compound 1255] | 76.32 % DMSO | 56.91 |
| O=C(CSc1ccc(-c2ccccn2)nn1)Nc1ccc2c(c1)OCCO2 [compound 1256] | 73.30 % DMSO | 33.82 |
| O=C(CSc1ccc(-c2ccccn2)nn1)Nc1ccccc1F [compound 1257] | 82.05 % DMSO | 37.50 |
| Brc1ccc(CSc2ccc(-c3ccccn3)nn2)cc1 [compound 1258] | 53.72 % DMSO | 12.89 |
| COc1cc(NC(=O)CSc2ccc(-c3ccccn3)nn2)cc(OC)c1 [compound 1259] | 60.54 % DMSO | 10.70 |
| Clc1cccc(CSc2ccc(-c3ccccn3)nn2)c1 [compound 1260] | 60.48 % DMSO | 17.25 |
| NC(=O)C1CCN(c2nc3c(S(=O)(=O)c4cccc(Cl)c4)nnn3c3ccsc23)CC1 [compound 1261] | 85.18 % DMSO | 40.28 |
| CCOc1cc(Br)cc(/C=N/NC(=O)COc2cccc(C)c2)c1O [compound 1262] | 57.61 % DMSO | 8.78 |
| Cc1ccc(O)c(/C=N/NC(=O)c2ccc(Br)cc2)c1 [compound 1263] | 64.51 % DMSO | 53.36 |
| O=C(N/N=C/c1cc(Cl)ccc1O)c1ccc(Br)cc1 [compound 1264] | 64.22 % DMSO | 33.41 |
| O=C(N/N=C/c1ccccn1)c1ccccc1 [compound 1265] | 81.94 % DMSO | 4.42 |
| O=C(N/N=C/c1c(O)ccc2ccccc12)c1ccc(Cl)c(Cl)c1 [compound 1266] | 50.17 % DMSO | 14.59 |
| O=C(N/N=C/c1ccccc1O)c1sc2ccccc2c1Cl [compound 1267] | 38.10 % DMSO | 3.76 |
| O=C(N/N=C/C=C/c1ccccc1)c1ccccc1O [compound 1268] | 80.84 % DMSO | 14.70 |
| O=C(N/N=C/c1cc(Br)ccc1O)c1cc2ccccc2cc1O [compound 1269] | 68.44 % DMSO | 93.93 |
| CC(C)(C)c1ccc(C(=O)N/N=C/c2c(O)ccc3ccccc23)cc1 [compound 1270] | 59.66 % DMSO | 34.64 |
| Oc1c(Br)cc(Br)cc1/C=N/Nc1ccccn1 [compound 1271] | 57.70 % DMSO | 38.63 |
| Cn1cc(C(=O)N/N=C/c2c(O)ccc3ccccc23)ccc1=O [compound 1272] | 57.10 % DMSO | 33.61 |
| Cc1ccc(NCC(=O)N/N=C\c2cc(Br)cc(Br)c2O)cc1 [compound 1273] | 75.55 % DMSO | 40.65 |

| SMILES | Average Cell Viability after 24 Hours (% DMSO) (viable cells in culture) | Average Number of hTERT Transcripts [1] |
| --- | --- | --- |
| O=C(N/N=C/c1cc(Br)cc(I)c1O)c1ccccn1 [compound 1274] | 75.52 % DMSO | 20.59 |
| C/C(=N\NC(=O)Cc1ccc(Cl)cc1)c1ccccn1 [compound 1275] | 71.98 % DMSO | 127.83 |
| O=C(NNC1=C(C(=O)C(F)(F)F)CCC1)c1ccc(Br)cc1 [compound 1276] | 92.70 % DMSO | 9.73 |
| Cc1occc1C(=O)N/N=C/c1cc(I)cc(I)c1O [compound 1277] | 68.53 % DMSO | 24.11 |
| O=C(Cc1ccccc1)NNC1=C(C(=O)C(F)(F)F)CCC1 [compound 1278] | 74.57 % DMSO | 35.46 |
| COc1cccc(C=NNC(=O)C(C)Nc2cccc3ccccc23)c1O (centres unmarked) [compound 1279] | 63.90 % DMSO | 25.71 |
| Cc1cc(C(=O)N/N=C/c2cc(Br)ccc2O)c(C)o1 [compound 1280] | 59.52 % DMSO | 9.80 |
| CCC(Nc1ccc(Br)cc1)C(=O)N/N=C/c1c(O)ccc2ccccc12 (centres unmarked) [compound 1281] | 56.81 % DMSO | 8.35 |
| Cc1cc(C(=O)N/N=C/c2ccccc2O)c(C)o1 [compound 1282] | 68.67 % DMSO | 27.61 |
| O=C(N/N=C/c1cccc2cccnc12)c1ccc2c(c1)OCO2 [compound 1283] | 68.25 % DMSO | 18.81 |
| CC(Oc1cccc2ccccc12)C(=O)NN=Cc1cccc2cccnc12 (centres unmarked) [compound 1284] | 73.23 % DMSO | 44.70 |
| O=c1cnnc(N/N=C/c2ccccn2)[nH]1 [compound 1285] | 65.50 % DMSO | 97.75 |
| O=C(Cc1ccccc1)N/N=C/c1cccc2cccnc12 [compound 1286] | 75.11 % DMSO | 29.62 |
| O=C(COc1ccc(F)cc1)N/N=C/c1cccc2cccnc12 [compound 1287] | 67.01 % DMSO | 12.08 |
| COc1ccccc1OCC(=O)N/N=C/c1cccc2cccnc12 [compound 1288] | 78.28 % DMSO | 18.81 |
| COc1ccc(OCC(=O)N/N=C/c2cccc3cccnc23)cc1 [compound 1289] | 84.79 % DMSO | 21.50 |
| O=C(COc1ccc(Cl)cc1)N/N=C/c1cccc2cccnc12 [compound 1290] | 62.81 % DMSO | 9.13 |
| CC(Oc1cccc2cccnc12)C(=O)N/N=C/c1cccc2cccnc12 (centres unmarked) [compound 1291] | 77.64 % DMSO | 47.89 |
| Cn1c(SCC(=O)N/N=C/c2sc3ccccc3c2O)nc2ccccc21 [compound 1292] | 69.51 % DMSO | 39.11 |
| O=C(N/N=C/c1ccccc1O)/C(=C\c1cccs1)NC(=O)c1ccccc1 [compound 1293] | 89.97 % DMSO | 37.88 |
| CCCCCC(=O)N/N=C(/C)c1ccccn1 [compound 1294] | 74.63 % DMSO | 105.99 |
| Cc1cc(NC(=O)C2c3ccccc3Oc3ccccc32)n(-c2nc(C)c(C)c(=O)[nH]2)n1 [compound 1295] | 66.62 % DMSO | 45.40 |
| CCc1c(C)nc(-n2nc(C)cc2NC(=O)C2c3ccccc3Oc3ccccc32)[nH]c1=O [compound 1296] | 73.20 % DMSO | 60.31 |
| CCOC(=O)c1nn(-c2ccccc2)c(=O)c2c(NC(=O)c3ccc4c(c3)OCO4)scc12 [compound 1298] | 101.83 % DMSO | 8.68 |
| CCOC(=O)c1nn(-c2ccccc2)c(=O)c2c(NC(=O)c3c(F)cccc3Cl)scc12 [compound 1299] | 69.64 % DMSO | 2.95 |
| CCOC(=O)c1nn(-c2ccc(Cl)cc2)c(=O)c2c(NC(=O)c3ccc(F)cc3)scc12 [compound 1300] | 62.52 % DMSO | 6.98 |
| O=C(Nc1ccc(Cl)c(Cl)c1)Nc1nnc(CSc2ccccc2)s1 [compound 1301] | 63.90 % DMSO | 65.14 |
